Test results: article PMC10360995, “Discovery of 3-((3-amino-1H-indazol-4-yl)ethynyl)-N-(4-((4-ethylpiperazin-1-yl)methyl)-3-(trifluoromethyl)phenyl)benzamide (AKE-72), a potent Pan-BCR-ABL inhibitor including the T315I gatekeeper resistant mutant” (Journal of Enzyme Inhibition and Medicinal Chemistry, 2023)
Read-outs that look alike come from different tables or passages of the source.

Legend:
[1] = system: HL-60(TB); experiment: cells; conditions: Homo sapiens; for GI50: HL-60, read-out: GI50 HL-60(TB)
[2] = system: CCRF-CEM; experiment: NCI SRB anti-leukemic assay; conditions: for GI50 / CC50: Homo sapiens, CCRF-CEM; for GI50: read-out: GI50 CCRF-CEM; for CC50: read-out: LC50 (half-maximal lethal concentration) CCRF-CEM; for TGI (total growth inhibition) CCRF-CEM: five-dose assay
[3] = system: SR; experiment: NCI SRB anti-leukemic assay; conditions: for GI50 / CC50: Homo sapiens, SR; for GI50: read-out: GI50 SR; for CC50: read-out: LC50 (half-maximal lethal concentration) SR; for TGI (total growth inhibition) SR: five-dose assay
[4] = system: RPMI-8226; experiment: NCI SRB anti-leukemic assay; conditions: for GI50 / CC50: Homo sapiens; for GI50: RPMI-8226, read-out: GI50 RPMI-8226; for CC50: RPMI-8226, read-out: LC50 (half-maximal lethal concentration) RPMI-8226; for TGI (total growth inhibition) RPMI-8226: five-dose assay
[5] = system: HL-60(TB); conditions: five-dose assay
[6] = system: K-562; experiment: NCI SRB anti-leukemic assay; conditions: for GI50: K562, read-out: GI50 K-562
[7] = system: MOLT-4; experiment: NCI SRB anti-leukemic assay; conditions: for GI50: MOLT-4, read-out: GI50 MOLT-4; for TGI (total growth inhibition) MOLT-4: five-dose assay
[8] = molecular target: BCR-ABL^WT (Homo sapiens, UniProt P00519); experiment: BCR-ABL WT kinase inhibition assay; type: biochemical; conditions: for IC50: 10-dose duplicate, 3-fold serial dilution, 10 µM ATP
[9] = molecular target: T1, CYP2D6 (Homo sapiens, UniProt P10635); experiment: Cytochrome P450 inhibition assay (Vivid CYP450 kit); type: in vitro ADME
T1 construct: purchased ThermoFisher (Vivid CYP450 screening kit), run at RBC
Excerpt: (§1) Azole derivatives are well known for their ability to inhibit cytochrome P450 isozymes.
(§2) 1.8. Cytochrome P450 Assay
(§3) The binding site was defined based

[10] = molecular target: T2, CYP2C9 (Homo sapiens, UniProt P11712); experiment: as above; type: in vitro ADME; conditions: recombinant CYP2C9 (Vivid CYP450 screening kit), single-dose duplicate, read-out: CYP inhibition % CYP2C9
T2 construct: purchased ThermoFisher (Vivid CYP450 screening kit), run at RBC
Excerpt: as §1, §2, §3

[11] = molecular target: T3, CYP3A4 (Homo sapiens, UniProt P08684); experiment: as above; type: in vitro ADME; conditions: single-dose duplicate, read-out: CYP inhibition % CYP3A4
T3 construct: purchased ThermoFisher (Vivid CYP450 screening kit), run at RBC
Excerpt: as §1, §2, §3

[12] = molecular target: T4, CYP1A2 (Homo sapiens, UniProt P05177); experiment: as above; type: in vitro ADME
T4 construct: purchased ThermoFisher (Vivid CYP450 screening kit), run at RBC
Excerpt: as §1, §2, §3

[13] = molecular target: FGFR1 (Homo sapiens, UniProt P11362); experiment: Kinase panel profiling at 50 nM; type: biochemical; conditions: range given for ten kinases together
Protocol: (§4) Figure 3. Enzyme inhibition percentage (relative to DMSO controls) of compound 5 (0.05 µM) against a panel of 18 kinases.

[14] = molecular target: VEGFR2 (Homo sapiens, UniProt P35968); experiment: Kinase panel profiling at 50 nM; type: biochemical; conditions: range given for ten kinases together
Protocol: as §4

[15] = molecular target: c-Kit (Homo sapiens, UniProt P10721); experiment: Kinase panel profiling at 50 nM; type: biochemical; conditions: range given for ten kinases together
Protocol: as §4

[16] = molecular target: LYN (Homo sapiens, UniProt P07948); experiment: Kinase panel profiling at 50 nM; type: biochemical; conditions: range given for ten kinases together
Protocol: as §4

[17] = molecular target: RET (Homo sapiens, UniProt P07949); experiment: Kinase panel profiling at 50 nM; type: biochemical; conditions: range given for ten kinases together
Protocol: as §4

[18] = molecular target: PDGFRβ (Homo sapiens, UniProt P09619); experiment: Kinase panel profiling at 50 nM; type: biochemical; conditions: range given for ten kinases together
Protocol: as §4

[19] = system: the other investigated kinases (panel of 18 kinases); experiment: Kinase panel profiling at 50 nM; type: biochemical
Protocol: as §4

[20] = molecular target: FMS (Homo sapiens, UniProt P07333); experiment: Kinase panel profiling at 50 nM; type: biochemical; conditions: range printed for c-Src and FMS together
Protocol: as §4

[21] = molecular target: LCK (Homo sapiens, UniProt P06239); experiment: Kinase panel profiling at 50 nM; type: biochemical; conditions: range given for ten kinases together
Protocol: as §4

[22] = molecular target: YES (Homo sapiens, UniProt P07947); experiment: Kinase panel profiling at 50 nM; type: biochemical; conditions: range given for ten kinases together
Protocol: as §4

[23] = molecular target: FLT3 (Homo sapiens, UniProt P36888); experiment: Kinase panel profiling at 50 nM; type: biochemical; conditions: range given for ten kinases together
Protocol: as §4

[24] = molecular target: c-Src (Homo sapiens, UniProt P12931); experiment: Kinase panel profiling at 50 nM; type: biochemical; conditions: range printed for c-Src and FMS together
Protocol: as §4

[25] = molecular target: FYN (Homo sapiens, UniProt P06241); experiment: Kinase panel profiling at 50 nM; type: biochemical; conditions: range given for ten kinases together
Protocol: as §4

[26] = system: Ba/F3 mouse pro-B cells; experiment: Cellular proliferation assay; type: cell-based; conditions: BaF3, read-out: GI50 Ba/F3 (mouse pro-B cell)
Excerpt: (§5) We also tested AKE-72 against BCR-ABL-positive and BCR-ABL-negative cell lines.
as §2, §3

[27] = system: K562 (Bcr-Abl positive); experiment: Cellular proliferation assay; type: cell-based; conditions: Homo sapiens, K562, read-out: GI50 K562 (Bcr-Abl positive)
Excerpt: as §5, §2, §3

[28] = system: U937 (Bcr-Abl negative); experiment: Cellular proliferation assay; type: cell-based; conditions: Homo sapiens, U-937, read-out: GI50 U937 (Bcr-Abl negative)
Excerpt: as §5, §2, §3

[29] = molecular target: ABL^M351T (Homo sapiens, UniProt P00519, M351T); experiment: ABL mutant enzymatic assay; type: biochemical; conditions: 10-dose, 3-fold dilution from 20 μM, 10 μM ATP
Excerpt: (§6) Compound 5 (AKE-72) was further profiled against a number of clinically relevant ABL mutants, including E255K, F317I, H396P, M351T, and Q252H (Table 2). This outcome confirmed the ability of compound 5 to potently suppress the activity of the clinically relevant ABL mutants in single-digit nanomolar IC50 values.

[30] = molecular target: ABL^E255K (Homo sapiens, UniProt P00519, E255K); experiment: ABL mutant enzymatic assay; type: biochemical; conditions: 10-dose, 3-fold dilution from 20 μM, 10 μM ATP
Excerpt: as §6

[31] = molecular target: ABL^Q252H (Homo sapiens, UniProt P00519, Q252H); experiment: ABL mutant enzymatic assay; type: biochemical; conditions: 10-dose, 3-fold dilution from 20 μM, 10 μM ATP
Excerpt: as §6

[32] = molecular target: ABL^H396P (Homo sapiens, UniProt P00519, H396P); experiment: ABL mutant enzymatic assay; type: biochemical; conditions: 10-dose, 3-fold dilution from 20 μM, 10 μM ATP
Excerpt: as §6

[33] = molecular target: ABL^F317I (Homo sapiens, UniProt P00519, F317I); experiment: ABL mutant enzymatic assay; type: biochemical; conditions: 10-dose, 3-fold dilution from 20 μM, 10 μM ATP
Excerpt: as §6

T3 sequence (P08684 whole entry): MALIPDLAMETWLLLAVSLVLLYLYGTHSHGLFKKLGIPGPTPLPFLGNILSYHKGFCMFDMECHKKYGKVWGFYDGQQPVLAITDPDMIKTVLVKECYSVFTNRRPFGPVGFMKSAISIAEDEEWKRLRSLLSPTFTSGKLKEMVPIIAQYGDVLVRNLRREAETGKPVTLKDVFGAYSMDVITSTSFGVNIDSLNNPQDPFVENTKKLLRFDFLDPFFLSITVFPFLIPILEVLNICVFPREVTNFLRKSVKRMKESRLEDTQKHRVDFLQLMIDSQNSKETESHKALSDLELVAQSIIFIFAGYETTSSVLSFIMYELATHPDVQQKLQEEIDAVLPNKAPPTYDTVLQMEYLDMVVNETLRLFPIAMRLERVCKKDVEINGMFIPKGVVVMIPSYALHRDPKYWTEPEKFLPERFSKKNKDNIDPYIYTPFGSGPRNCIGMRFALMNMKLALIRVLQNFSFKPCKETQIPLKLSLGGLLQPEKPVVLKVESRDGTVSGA
T1 sequence (P10635 whole entry): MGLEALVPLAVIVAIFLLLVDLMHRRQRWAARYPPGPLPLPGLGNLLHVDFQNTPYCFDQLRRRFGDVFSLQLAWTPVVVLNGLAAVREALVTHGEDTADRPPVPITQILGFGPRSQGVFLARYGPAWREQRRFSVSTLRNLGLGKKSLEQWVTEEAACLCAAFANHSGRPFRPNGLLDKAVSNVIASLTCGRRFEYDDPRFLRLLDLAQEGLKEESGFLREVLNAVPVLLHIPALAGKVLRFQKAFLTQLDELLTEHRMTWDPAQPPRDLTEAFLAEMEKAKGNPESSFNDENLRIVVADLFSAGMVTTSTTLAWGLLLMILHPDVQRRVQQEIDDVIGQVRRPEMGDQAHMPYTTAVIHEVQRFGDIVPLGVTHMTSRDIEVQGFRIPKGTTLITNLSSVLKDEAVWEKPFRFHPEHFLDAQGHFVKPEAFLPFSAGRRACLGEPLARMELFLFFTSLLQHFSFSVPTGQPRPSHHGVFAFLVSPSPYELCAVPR
T4 sequence (P05177 whole entry): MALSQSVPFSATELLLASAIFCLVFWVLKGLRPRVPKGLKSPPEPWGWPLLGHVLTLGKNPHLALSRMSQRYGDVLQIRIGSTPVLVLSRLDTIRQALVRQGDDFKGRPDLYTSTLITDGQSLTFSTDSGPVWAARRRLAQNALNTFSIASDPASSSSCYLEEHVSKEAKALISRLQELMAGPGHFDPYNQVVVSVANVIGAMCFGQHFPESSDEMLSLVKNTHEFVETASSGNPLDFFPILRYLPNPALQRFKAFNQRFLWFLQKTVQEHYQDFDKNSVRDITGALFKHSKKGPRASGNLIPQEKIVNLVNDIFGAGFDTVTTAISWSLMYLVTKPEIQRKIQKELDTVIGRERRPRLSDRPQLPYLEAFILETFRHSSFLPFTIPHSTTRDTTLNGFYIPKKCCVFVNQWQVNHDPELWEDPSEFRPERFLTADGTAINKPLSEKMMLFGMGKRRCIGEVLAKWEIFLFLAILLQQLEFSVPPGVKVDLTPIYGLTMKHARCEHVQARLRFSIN
Sequence of LYN (P07948 whole entry): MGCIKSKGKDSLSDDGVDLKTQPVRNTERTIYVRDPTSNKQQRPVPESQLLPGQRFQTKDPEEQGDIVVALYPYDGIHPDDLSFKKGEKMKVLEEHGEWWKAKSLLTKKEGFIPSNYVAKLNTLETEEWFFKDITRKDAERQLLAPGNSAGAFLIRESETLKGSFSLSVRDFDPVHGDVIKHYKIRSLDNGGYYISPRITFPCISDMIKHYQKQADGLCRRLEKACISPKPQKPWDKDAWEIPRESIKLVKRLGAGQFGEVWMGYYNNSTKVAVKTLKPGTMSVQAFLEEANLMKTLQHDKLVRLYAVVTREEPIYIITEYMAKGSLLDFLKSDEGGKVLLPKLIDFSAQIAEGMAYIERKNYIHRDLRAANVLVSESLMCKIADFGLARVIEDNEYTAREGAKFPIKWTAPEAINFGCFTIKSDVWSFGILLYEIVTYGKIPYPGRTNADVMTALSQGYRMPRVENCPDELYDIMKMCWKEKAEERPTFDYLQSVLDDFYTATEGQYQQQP
Sequence of RET (P07949 29-1114): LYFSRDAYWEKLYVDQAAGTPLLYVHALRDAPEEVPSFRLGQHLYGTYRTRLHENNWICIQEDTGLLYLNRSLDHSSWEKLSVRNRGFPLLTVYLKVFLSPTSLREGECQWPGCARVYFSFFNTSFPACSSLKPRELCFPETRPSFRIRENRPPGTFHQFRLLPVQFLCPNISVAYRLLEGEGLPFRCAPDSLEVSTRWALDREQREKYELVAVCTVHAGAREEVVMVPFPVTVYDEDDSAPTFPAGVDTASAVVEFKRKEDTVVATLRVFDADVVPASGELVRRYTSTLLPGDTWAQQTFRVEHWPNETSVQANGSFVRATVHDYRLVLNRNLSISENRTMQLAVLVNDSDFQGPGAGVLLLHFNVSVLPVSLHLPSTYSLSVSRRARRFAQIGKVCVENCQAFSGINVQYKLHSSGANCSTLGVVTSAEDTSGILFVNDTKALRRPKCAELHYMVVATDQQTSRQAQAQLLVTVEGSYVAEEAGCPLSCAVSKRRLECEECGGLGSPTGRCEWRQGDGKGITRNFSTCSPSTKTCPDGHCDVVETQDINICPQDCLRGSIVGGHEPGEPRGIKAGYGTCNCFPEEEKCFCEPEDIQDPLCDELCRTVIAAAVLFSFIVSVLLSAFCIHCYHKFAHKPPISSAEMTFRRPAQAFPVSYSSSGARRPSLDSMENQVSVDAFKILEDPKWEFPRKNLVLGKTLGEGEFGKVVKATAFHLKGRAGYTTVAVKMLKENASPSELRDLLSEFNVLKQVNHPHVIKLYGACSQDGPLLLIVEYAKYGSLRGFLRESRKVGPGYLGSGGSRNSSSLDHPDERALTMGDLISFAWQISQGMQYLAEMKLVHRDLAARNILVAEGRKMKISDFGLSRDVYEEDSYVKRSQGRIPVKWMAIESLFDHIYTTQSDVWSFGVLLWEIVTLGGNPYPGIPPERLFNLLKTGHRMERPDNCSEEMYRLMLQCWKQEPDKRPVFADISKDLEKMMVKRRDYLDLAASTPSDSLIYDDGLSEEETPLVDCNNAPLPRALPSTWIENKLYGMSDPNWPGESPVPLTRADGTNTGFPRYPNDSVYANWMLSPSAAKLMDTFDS
Sequence of FMS (P07333 20-972): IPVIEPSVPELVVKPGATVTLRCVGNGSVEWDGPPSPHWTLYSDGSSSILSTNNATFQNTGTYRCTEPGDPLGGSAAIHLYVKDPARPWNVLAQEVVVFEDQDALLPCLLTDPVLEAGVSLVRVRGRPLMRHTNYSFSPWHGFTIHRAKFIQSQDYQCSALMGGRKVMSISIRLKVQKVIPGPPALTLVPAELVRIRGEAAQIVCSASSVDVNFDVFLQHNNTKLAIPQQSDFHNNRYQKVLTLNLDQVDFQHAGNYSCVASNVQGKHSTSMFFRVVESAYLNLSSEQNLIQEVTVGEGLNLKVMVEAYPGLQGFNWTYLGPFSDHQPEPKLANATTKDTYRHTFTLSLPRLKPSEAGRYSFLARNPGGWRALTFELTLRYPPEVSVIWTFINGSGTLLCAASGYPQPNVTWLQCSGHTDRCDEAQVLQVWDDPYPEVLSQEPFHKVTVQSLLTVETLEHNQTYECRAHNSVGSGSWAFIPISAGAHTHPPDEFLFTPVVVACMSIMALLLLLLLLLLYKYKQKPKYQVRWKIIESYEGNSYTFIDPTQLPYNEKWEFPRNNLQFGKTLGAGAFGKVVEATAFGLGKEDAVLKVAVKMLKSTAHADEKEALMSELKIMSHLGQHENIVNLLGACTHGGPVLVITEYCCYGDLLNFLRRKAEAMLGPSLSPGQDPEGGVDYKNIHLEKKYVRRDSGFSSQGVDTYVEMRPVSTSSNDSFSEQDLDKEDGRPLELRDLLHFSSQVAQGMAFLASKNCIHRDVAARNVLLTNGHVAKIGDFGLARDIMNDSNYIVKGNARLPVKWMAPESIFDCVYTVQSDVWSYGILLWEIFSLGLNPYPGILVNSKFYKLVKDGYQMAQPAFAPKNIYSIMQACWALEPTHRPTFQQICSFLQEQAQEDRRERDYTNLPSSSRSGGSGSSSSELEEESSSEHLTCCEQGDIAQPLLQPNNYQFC
Sequence of FGFR1 (P11362 22-822): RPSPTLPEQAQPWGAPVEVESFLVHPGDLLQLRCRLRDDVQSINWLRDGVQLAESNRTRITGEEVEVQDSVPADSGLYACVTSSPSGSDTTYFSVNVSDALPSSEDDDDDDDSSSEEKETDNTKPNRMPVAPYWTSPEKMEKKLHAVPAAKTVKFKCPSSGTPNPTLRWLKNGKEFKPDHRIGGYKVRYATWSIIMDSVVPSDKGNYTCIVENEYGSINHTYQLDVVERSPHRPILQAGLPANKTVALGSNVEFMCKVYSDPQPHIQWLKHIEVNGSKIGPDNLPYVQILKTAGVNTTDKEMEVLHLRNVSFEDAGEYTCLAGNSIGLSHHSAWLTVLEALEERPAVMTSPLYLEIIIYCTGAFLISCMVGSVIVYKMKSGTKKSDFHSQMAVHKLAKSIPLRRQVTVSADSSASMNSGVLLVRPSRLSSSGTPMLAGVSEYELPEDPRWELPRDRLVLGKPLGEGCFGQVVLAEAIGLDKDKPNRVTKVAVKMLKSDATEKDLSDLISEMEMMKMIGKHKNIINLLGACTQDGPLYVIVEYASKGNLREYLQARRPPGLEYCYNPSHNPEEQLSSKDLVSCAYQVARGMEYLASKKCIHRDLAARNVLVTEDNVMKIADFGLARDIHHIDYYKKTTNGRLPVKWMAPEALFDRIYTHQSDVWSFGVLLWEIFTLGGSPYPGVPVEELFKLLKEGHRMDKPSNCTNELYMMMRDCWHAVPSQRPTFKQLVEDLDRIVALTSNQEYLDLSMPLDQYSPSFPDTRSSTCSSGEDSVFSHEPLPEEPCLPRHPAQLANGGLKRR

## CCN1CCN(Cc2ccc(C(=O)Nc3cccc(C#Cc4cccc5[nH]nc(N)c45)c3)cc2C(F)(F)F)CC1 [Compound 4b]
[1]
  GI50: 593 nM
[2]
  GI50: 1600 nM
  CC50: 8160 nM
  TGI (total growth inhibition) CCRF-CEM: 3620 nM
[2]; single dose 10 µM
  GI % CCRF-CEM: 96.4%
[3]
  GI50: 1780 nM
  CC50: > 100000 nM
  TGI (total growth inhibition) SR: 4590 nM
[4]
  GI50: 1590 nM
  CC50: 9710 nM
  TGI (total growth inhibition) RPMI-8226: 3920 nM
[4]; single dose 10 µM
  GI % RPMI-8226: L (lethal effect (% GI > 100))
[5]
  TGI (total growth inhibition) HL-60(TB): 2610 nM
[6]; Homo sapiens
  GI50: < 1000 nM
[6]; five-dose assay
  TGI (total growth inhibition) K-562: 1140 nM
[7]; Homo sapiens
  GI50: 1420 nM
[7]
  TGI (total growth inhibition) MOLT-4: 3570 nM
[8]
  IC50: 0.64 ± 0.0099 nM

## CCN1CCN(Cc2ccc(NC(=O)c3cccc(C#Cc4cccc5[nH]nc(N)c45)c3)cc2C(F)(F)F)CC1 [Compound 5, 3-((3-amino-1H-indazol-4-yl)ethynyl)-N-(4-((4-ethylpiperazin-1-yl)methyl)-3-(trifluoromethyl)phenyl)benzamide]
[9]
  IC50: > 10000 nM
[9]; human, recombinant CYP2D6 (Vivid CYP450 screening kit), 10 µM, single-dose duplicate, read-out: CYP inhibition % CYP2D6
  inhibition at 10 µM: 13.92 ± 0.06%
[10]
  inhibition at 10 µM: 50.67 ± 0.075%
[11]; Vivid CYP450 screening kit (CYP3A4 isozyme)
  inhibition at 10 µM: 90.6%
[11]; recombinant CYP3A4 (Vivid CYP450 screening kit)
  inhibition at 10 µM: 96.57 ± 0.065%
[12]
  IC50: > 10000 nM
[12]; human, recombinant CYP1A2 (Vivid CYP450 screening kit), 10 µM, single-dose duplicate, read-out: CYP inhibition % CYP1A2
  inhibition at 10 µM: 9.88 ± 0.09%
[1]
  GI50: 97.9 nM
[1]; HL-60, read-out: LC50 (half-maximal lethal concentration) HL-60(TB)
  CC50: 5170 nM
[13]
  inhibition at 0.05 µM: 83.9 to 99.3%
[14]
  inhibition at 0.05 µM: 83.9 to 99.3%
[15]
  inhibition at 0.05 µM: 83.9 to 99.3%
[16]
  inhibition at 0.05 µM: 83.9 to 99.3%
[17]
  inhibition at 0.05 µM: 83.9 to 99.3%
[18]
  inhibition at 0.05 µM: 83.9 to 99.3%
[19]
  inhibition of the other investigated kinases: no inhibition
[20]
  inhibition at 0.05 µM: 64.5 to 73%
[21]
  inhibition at 0.05 µM: 83.9 to 99.3%
[22]
  inhibition at 0.05 µM: 83.9 to 99.3%
[23]
  inhibition at 0.05 µM: 83.9 to 99.3%
[24]
  inhibition at 0.05 µM: 64.5 to 73%
[25]
  inhibition at 0.05 µM: 83.9 to 99.3%
[26]
  GI50: 4000 ± 1170 nM
[27]
  GI50: 5.9 nM
[28]
  GI50: 1900 ± 61 nM
[2]
  GI50: 436 nM
  CC50: > 100000 nM
  TGI (total growth inhibition) CCRF-CEM: 3040 nM
[3]
  GI50: 238 nM
  CC50: > 100000 nM
  TGI (total growth inhibition) SR: 732 nM
[29]
  IC50: 3.44 nM
[30]
  IC50: 8.98 nM
[31]
  IC50: 3.88 nM
[32]
  IC50: < 1.02 nM
[33]
  IC50: 3.12 nM
[4]
  GI50: 488 nM
  CC50: > 100000 nM
  TGI (total growth inhibition) RPMI-8226: 2660 nM
[5]
  TGI (total growth inhibition) HL-60(TB): 1040 nM
[6]; Homo sapiens
  GI50: < 10 nM
[6]; Homo sapiens, K562, read-out: LC50 (half-maximal lethal concentration) K-562
  CC50: 5250 nM
[6]; five-dose assay
  TGI (total growth inhibition) K-562: 154 nM
  TGI K-562: 154 nM
[7]; Homo sapiens
  GI50: 227 nM
[7]; Homo sapiens, MOLT-4, read-out: LC50 (half-maximal lethal concentration) MOLT-4
  CC50: 5130 nM
[7]
  TGI (total growth inhibition) MOLT-4: 1160 nM
[8]
  IC50: < 0.51 nM
[8]; relative to II
  fold superior potency against BCR-ABL^WT versus lead indazole II: > 300 folds
